Results taken from ChEMBL document CHEMBL1201861, “Genomics of Drug Sensitity in Cancer screening data, Wellcome Trust Sanger Institute”.

Tested on: KE-37;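 note: growth inhibition of KE-37 cells, read out with a cell viability assay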
Assay: cells
Type: functional, cell-based, Homo sapiens
Conditions: Homo sapiens, KE-37
Description: SANGER: Inhibition of human KE-37 cell growth in a cell viability assay.

Row | Compound | IC50
1 | CC[C@H](CO)Nc1nc(NCc2ccccc2)c2ncn(C(C)C)c2n1 [SELICICLIB] | > 16 µM

Tested on: TK-10;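 note: growth inhibition of TK-10 cells, read out in a cell viability assay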
Assay: cells
Type: functional, cell-based, Homo sapiens
Conditions: Homo sapiens, TK-10
Description: SANGER: Inhibition of human TK10 cell growth in a cell viability assay.

Row | Compound | IC50
2 | CC[C@H](CO)Nc1nc(NCc2ccccc2)c2ncn(C(C)C)c2n1 [SELICICLIB] | > 16 µM

Tested on: HL-60;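 note: growth inhibition of human HL-60 cells, read out with a cell viability assay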
Assay: cells
Type: functional, cell-based, Homo sapiens
Conditions: Homo sapiens, HL-60
Description: SANGER: Inhibition of human HL-60 cell growth in a cell viability assay.

Row | Compound | IC50
3 | CC[C@H](CO)Nc1nc(NCc2ccccc2)c2ncn(C(C)C)c2n1 [SELICICLIB] | > 16 µM

Tested on: NCI-H1838;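 note: growth inhibition of NCI-H1838 cells, determined with a cell viability readout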
Assay: cells
Type: functional, cell-based, Homo sapiens
Conditions: Homo sapiens, NCI-H1838
Description: SANGER: Inhibition of human NCI-H1838 cell growth in a cell viability assay.

Row | Compound | IC50
4 | CC[C@H](CO)Nc1nc(NCc2ccccc2)c2ncn(C(C)C)c2n1 [SELICICLIB] | > 16 µM

Tested on: IST-MES1;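 note: growth inhibition of IST-MES1 cells, measured with a cell viability assay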
Assay: cells
Type: functional, cell-based, Homo sapiens
Conditions: Homo sapiens, IST-MES1
Description: SANGER: Inhibition of human IST-MES1 cell growth in a cell viability assay.

Row | Compound | IC50
5 | CC[C@H](CO)Nc1nc(NCc2ccccc2)c2ncn(C(C)C)c2n1 [SELICICLIB] | > 16 µM

Tested on: GI-1;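 note: growth inhibition of human GI-1 cells, measured with a cell viability readout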
Assay: cells
Type: functional, cell-based, Homo sapiens
Conditions: Homo sapiens, GI-1
Description: SANGER: Inhibition of human GI-1 cell growth in a cell viability assay.

Row | Compound | IC50
6 | CC[C@H](CO)Nc1nc(NCc2ccccc2)c2ncn(C(C)C)c2n1 [SELICICLIB] | > 16 µM

Tested on: LU-134-A
Assay: cells
Type: functional, cell-based, Homo sapiens
Conditions: Homo sapiens, LU-134-A
Description: SANGER: Inhibition of human LU-134-A cell growth in a cell viability assay.

Row | Compound | IC50
7 | CC[C@H](CO)Nc1nc(NCc2ccccc2)c2ncn(C(C)C)c2n1 [SELICICLIB] | > 16 µM

Tested on: KG-1;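 note: growth inhibition of KG-1 cells, read out by a cell viability assay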
Assay: cells
Type: functional, cell-based, Homo sapiens
Conditions: Homo sapiens, KG-1
Description: SANGER: Inhibition of human KG-1 cell growth in a cell viability assay.

Row | Compound | IC50
8 | CC[C@H](CO)Nc1nc(NCc2ccccc2)c2ncn(C(C)C)c2n1 [SELICICLIB] | > 16 µM

Tested on: COLO-320-HSR;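 note: growth inhibition of COLO-320-HSR cells, determined with a cell viability assay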
Assay: cells
Type: functional, cell-based, Homo sapiens
Conditions: Homo sapiens, COLO-320-HSR
Description: SANGER: Inhibition of human COLO-320-HSR cell growth in a cell viability assay.

Row | Compound | IC50
9 | CC[C@H](CO)Nc1nc(NCc2ccccc2)c2ncn(C(C)C)c2n1 [SELICICLIB] | > 16 µM

Tested on: MC116;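 note: growth inhibition of MC116 cells, read out with a cell viability assay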
Assay: cells
Type: functional, cell-based, Homo sapiens
Conditions: Homo sapiens, MC116
Description: SANGER: Inhibition of human MC116 cell growth in a cell viability assay.

Row | Compound | IC50
10 | CC[C@H](CO)Nc1nc(NCc2ccccc2)c2ncn(C(C)C)c2n1 [SELICICLIB] | > 16 µM

Tested on: MEG-01;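 note: growth inhibition of MEG-01 cells, read out by a cell viability assay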
Assay: cells
Type: functional, cell-based, Homo sapiens
Conditions: Homo sapiens, MEG-01
Description: SANGER: Inhibition of human MEG-01 cell growth in a cell viability assay.

Row | Compound | IC50
11 | CC[C@H](CO)Nc1nc(NCc2ccccc2)c2ncn(C(C)C)c2n1 [SELICICLIB] | 13.8 µM

Tested on: COR-L88;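 note: growth inhibition of COR-L88 cells, read out with a cell viability assay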
Assay: cells
Type: functional, cell-based, Homo sapiens
Conditions: Homo sapiens, COR-L88
Description: SANGER: Inhibition of human COR-L88 cell growth in a cell viability assay.

Row | Compound | IC50
12 | CC[C@H](CO)Nc1nc(NCc2ccccc2)c2ncn(C(C)C)c2n1 [SELICICLIB] | > 16 µM

Tested on: LB373-MEL-D;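 note: growth inhibition of the cell line, read out in a cell viability assay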
Assay: cells
Type: functional, cell-based, Homo sapiens
Conditions: Homo sapiens, LB373-MEL-D
Description: SANGER: Inhibition of human LB373-MEL-D cell growth in a cell viability assay.

Row | Compound | IC50
13 | CC[C@H](CO)Nc1nc(NCc2ccccc2)c2ncn(C(C)C)c2n1 [SELICICLIB] | > 16 µM

Tested on: KINGS-1;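 note: cell viability assay measuring suppression of KINGS-1 cell growth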
Assay: cells
Type: functional, cell-based, Homo sapiens
Conditions: Homo sapiens, KINGS-1
Description: SANGER: Inhibition of human KINGS-1 cell growth in a cell viability assay.

Row | Compound | IC50
14 | CC[C@H](CO)Nc1nc(NCc2ccccc2)c2ncn(C(C)C)c2n1 [SELICICLIB] | > 16 µM

Tested on: Mo
Assay: cells
Type: functional, cell-based, Homo sapiens
Conditions: Homo sapiens, Mo
Description: SANGER: Inhibition of human Mo-T cell growth in a cell viability assay.

Row | Compound | IC50
15 | CC[C@H](CO)Nc1nc(NCc2ccccc2)c2ncn(C(C)C)c2n1 [SELICICLIB] | > 16 µM

Tested on: NCI-H1155;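 note: cell growth inhibition measured by a viability assay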
Assay: cells
Type: functional, cell-based, Homo sapiens
Conditions: Homo sapiens, NCI-H1155
Description: SANGER: Inhibition of human NCI-H1155 cell growth in a cell viability assay.

Row | Compound | IC50
16 | CC[C@H](CO)Nc1nc(NCc2ccccc2)c2ncn(C(C)C)c2n1 [SELICICLIB] | > 16 µM

Tested on: SF-539;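 note: Read-out is a cell viability assay, with IC50 reflecting inhibition of cell growth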
Assay: cells
Type: functional, cell-based, Homo sapiens
Conditions: Homo sapiens, SF-539
Description: SANGER: Inhibition of human SF539 cell growth in a cell viability assay.

Row | Compound | IC50
17 | CC[C@H](CO)Nc1nc(NCc2ccccc2)c2ncn(C(C)C)c2n1 [SELICICLIB] | > 16 µM

Tested on: MLMA;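 note: growth inhibition of MLMA cells (human), determined through a cell viability readout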
Assay: cells
Type: functional, cell-based, Homo sapiens
Conditions: Homo sapiens, MLMA
Description: SANGER: Inhibition of human MLMA cell growth in a cell viability assay.

Row | Compound | IC50
18 | CC[C@H](CO)Nc1nc(NCc2ccccc2)c2ncn(C(C)C)c2n1 [SELICICLIB] | > 16 µM

Tested on: HD-MY-Z;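 note: growth inhibition of HD-MY-Z cells, read out with a cell viability assay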
Assay: cells
Type: functional, cell-based, Homo sapiens
Conditions: Homo sapiens, HD-MY-Z
Description: SANGER: Inhibition of human HD-MY-Z cell growth in a cell viability assay.

Row | Compound | IC50
19 | CC[C@H](CO)Nc1nc(NCc2ccccc2)c2ncn(C(C)C)c2n1 [SELICICLIB] | > 16 µM

Tested on: EW-16;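 note: growth inhibition of human EW-16 cells, read out as cell viability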
Assay: cells
Type: functional, cell-based, Homo sapiens
Conditions: Homo sapiens, EW-16
Description: SANGER: Inhibition of human EW-16 cell growth in a cell viability assay.

Row | Compound | IC50
20 | CC[C@H](CO)Nc1nc(NCc2ccccc2)c2ncn(C(C)C)c2n1 [SELICICLIB] | > 16 µM

Tested on: RCC10RGB;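 note: growth inhibition of human RCC10RGB cells, read out by a cell viability assay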
Assay: cells
Type: functional, cell-based, Homo sapiens
Conditions: Homo sapiens, RCC10RGB
Description: SANGER: Inhibition of human RCC10RGB cell growth in a cell viability assay.

Row | Compound | IC50
21 | CC[C@H](CO)Nc1nc(NCc2ccccc2)c2ncn(C(C)C)c2n1 [SELICICLIB] | > 16 µM

Tested on: DJM-1;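 note: growth inhibition of human DJM-1 cells, read out by a cell viability assay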
Assay: cells
Type: functional, cell-based, Homo sapiens
Conditions: Homo sapiens, DJM-1
Description: SANGER: Inhibition of human DJM-1 cell growth in a cell viability assay.

Row | Compound | IC50
22 | CC[C@H](CO)Nc1nc(NCc2ccccc2)c2ncn(C(C)C)c2n1 [SELICICLIB] | > 16 µM

Tested on: KM-H2;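 note: growth inhibition of KM-H2 cells, read out by a cell viability assay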
Assay: cells
Type: functional, cell-based, Homo sapiens
Conditions: Homo sapiens, KM-H2
Description: SANGER: Inhibition of human KM-H2 cell growth in a cell viability assay.

Row | Compound | IC50
23 | CC[C@H](CO)Nc1nc(NCc2ccccc2)c2ncn(C(C)C)c2n1 [SELICICLIB] | > 16 µM

Tested on: K562
Assay: cells
Type: functional, cell-based, Homo sapiens
Conditions: Homo sapiens, K562
Description: SANGER: Inhibition of human K-562 cell growth in a cell viability assay.

Row | Compound | IC50
24 | CC[C@H](CO)Nc1nc(NCc2ccccc2)c2ncn(C(C)C)c2n1 [SELICICLIB] | > 16 µM

Tested on: KS-1;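 note: growth inhibition of KS-1 cells, read out with a cell viability assay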
Assay: cells
Type: functional, cell-based, Homo sapiens
Conditions: Homo sapiens, KS-1
Description: SANGER: Inhibition of human KS-1 cell growth in a cell viability assay.

Row | Compound | IC50
25 | CC[C@H](CO)Nc1nc(NCc2ccccc2)c2ncn(C(C)C)c2n1 [SELICICLIB] | 9.46 µM

Tested on: MMAC-SF;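 note: growth inhibition of human MMAC-SF cells, read out with a cell viability assay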
Assay: cells
Type: functional, cell-based, Homo sapiens
Conditions: Homo sapiens, MMAC-SF
Description: SANGER: Inhibition of human MMAC-SF cell growth in a cell viability assay.

Row | Compound | IC50
26 | CC[C@H](CO)Nc1nc(NCc2ccccc2)c2ncn(C(C)C)c2n1 [SELICICLIB] | > 16 µM

Tested on: LU-139
Assay: cells
Type: functional, cell-based, Homo sapiens
Conditions: Homo sapiens, LU-139
Description: SANGER: Inhibition of human LU-139 cell growth in a cell viability assay.

Row | Compound | IC50
27 | CC[C@H](CO)Nc1nc(NCc2ccccc2)c2ncn(C(C)C)c2n1 [SELICICLIB] | > 16 µM

Tested on: A388;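 note: growth inhibition of human A388 cells, read out with a cell viability assay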
Assay: cells
Type: functional, cell-based, Homo sapiens
Conditions: Homo sapiens, A388
Description: SANGER: Inhibition of human A388 cell growth in a cell viability assay.

Row | Compound | IC50
28 | CC[C@H](CO)Nc1nc(NCc2ccccc2)c2ncn(C(C)C)c2n1 [SELICICLIB] | > 16 µM

Tested on: HCC1187;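 note: growth inhibition of HCC1187 cells, read out with a cell viability assay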
Assay: cells
Type: functional, cell-based, Homo sapiens
Conditions: Homo sapiens, HCC1187
Description: SANGER: Inhibition of human HCC1187 cell growth in a cell viability assay.

Row | Compound | IC50
29 | CC[C@H](CO)Nc1nc(NCc2ccccc2)c2ncn(C(C)C)c2n1 [SELICICLIB] | > 16 µM

Tested on: NTERA-2-cl-D1;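 note: inhibition of cell growth, measured with a cell viability assay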
Assay: cells
Type: functional, cell-based, Homo sapiens
Conditions: Homo sapiens, NTERA-2-cl-D1
Description: SANGER: Inhibition of human NTERA-S-cl-D1 cell growth in a cell viability assay.

Row | Compound | IC50
30 | CC[C@H](CO)Nc1nc(NCc2ccccc2)c2ncn(C(C)C)c2n1 [SELICICLIB] | > 16 µM

Tested on: NCI-H1770;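 note: growth inhibition of NCI-H1770 cells determined with a viability readout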
Assay: cells
Type: functional, cell-based, Homo sapiens
Conditions: Homo sapiens, NCI-H1770
Description: SANGER: Inhibition of human NCI-H1770 cell growth in a cell viability assay.

Row | Compound | IC50
31 | CC[C@H](CO)Nc1nc(NCc2ccccc2)c2ncn(C(C)C)c2n1 [SELICICLIB] | > 16 µM

Tested on: PSN1;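 note: suppression of growth of human PSN1 cells, read out by a cell viability assay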
Assay: cells
Type: functional, cell-based, Homo sapiens
Conditions: Homo sapiens, PSN1
Description: SANGER: Inhibition of human PSN1 cell growth in a cell viability assay.

Row | Compound | IC50
32 | CC[C@H](CO)Nc1nc(NCc2ccccc2)c2ncn(C(C)C)c2n1 [SELICICLIB] | > 16 µM

Tested on: LB2241-RCC;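 note: cell viability assay measuring how strongly the cultured human renal carcinoma line is prevented from growing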
Assay: cells
Type: functional, cell-based, Homo sapiens
Conditions: Homo sapiens, LB2241-RCC
Description: SANGER: Inhibition of human LB2241-RCC cell growth in a cell viability assay.

Row | Compound | IC50
33 | CC[C@H](CO)Nc1nc(NCc2ccccc2)c2ncn(C(C)C)c2n1 [SELICICLIB] | > 16 µM

Tested on: NCI-H23;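 note: cell viability assay measuring growth inhibition of NCI-H23 cells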
Assay: cells
Type: functional, cell-based, Homo sapiens
Conditions: Homo sapiens, NCI-H23
Description: SANGER: Inhibition of human NCI-H23 cell growth in a cell viability assay.

Row | Compound | IC50
34 | CC[C@H](CO)Nc1nc(NCc2ccccc2)c2ncn(C(C)C)c2n1 [SELICICLIB] | > 16 µM

Tested on: A4-Fuk;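 note: growth inhibition of A4-Fuk cells, read out by a cell viability assay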
Assay: cells
Type: functional, cell-based, Homo sapiens
Conditions: Homo sapiens, A4-Fuk
Description: SANGER: Inhibition of human A4-Fuk cell growth in a cell viability assay.

Row | Compound | IC50
35 | CC[C@H](CO)Nc1nc(NCc2ccccc2)c2ncn(C(C)C)c2n1 [SELICICLIB] | > 16 µM

Tested on: RKO;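 note: growth inhibition of human RKO cells, read out with a cell viability assay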
Assay: cells
Type: functional, cell-based, Homo sapiens
Conditions: Homo sapiens, RKO
Description: SANGER: Inhibition of human RKO cell growth in a cell viability assay.

Row | Compound | IC50
36 | CC[C@H](CO)Nc1nc(NCc2ccccc2)c2ncn(C(C)C)c2n1 [SELICICLIB] | > 16 µM

Tested on: NCI-H209;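 note: growth inhibition of human NCI-H209 cells, measured by a cell viability assay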
Assay: cells
Type: functional, cell-based, Homo sapiens
Conditions: Homo sapiens, NCI-H209
Description: SANGER: Inhibition of human NCI-H209 cell growth in a cell viability assay.

Row | Compound | IC50
37 | CC[C@H](CO)Nc1nc(NCc2ccccc2)c2ncn(C(C)C)c2n1 [SELICICLIB] | > 16 µM

Tested on: ES5;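 note: growth inhibition of human ES5 cells, read out by a cell viability assay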
Assay: cells
Type: functional, cell-based, Homo sapiens
Conditions: Homo sapiens, ES5
Description: SANGER: Inhibition of human ES5 cell growth in a cell viability assay.

Row | Compound | IC50
38 | CC[C@H](CO)Nc1nc(NCc2ccccc2)c2ncn(C(C)C)c2n1 [SELICICLIB] | > 16 µM

Tested on: NOS-1;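 note: growth inhibition of the human NOS-1 cell line, read out with a cell viability assay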
Assay: cells
Type: functional, cell-based, Homo sapiens
Conditions: Homo sapiens, NOS-1
Description: SANGER: Inhibition of human NOS-1 cell growth in a cell viability assay.

Row | Compound | IC50
39 | CC[C@H](CO)Nc1nc(NCc2ccccc2)c2ncn(C(C)C)c2n1 [SELICICLIB] | > 16 µM

Tested on: no-10;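 note: growth inhibition of no-10 cells, read out with a cell viability assay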
Assay: cells
Type: functional, cell-based, Homo sapiens
Conditions: Homo sapiens
Description: SANGER: Inhibition of human no-10 cell growth in a cell viability assay.

Row | Compound | IC50
40 | CC[C@H](CO)Nc1nc(NCc2ccccc2)c2ncn(C(C)C)c2n1 [SELICICLIB] | > 16 µM

Tested on: EKVX;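 note: growth inhibition of human EKVX cells, read out with a cell viability assay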
Assay: cells
Type: functional, cell-based, Homo sapiens
Conditions: Homo sapiens, EKVX
Description: SANGER: Inhibition of human EKVX cell growth in a cell viability assay.

Row | Compound | IC50
41 | CC[C@H](CO)Nc1nc(NCc2ccccc2)c2ncn(C(C)C)c2n1 [SELICICLIB] | > 16 µM

Tested on: SW 954;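 note: growth inhibition of SW954 human cancer cells, read out as cell viability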
Assay: cells
Type: functional, cell-based, Homo sapiens
Conditions: Homo sapiens, SW 954
Description: SANGER: Inhibition of human SW954 cell growth in a cell viability assay.

Row | Compound | IC50
42 | CC[C@H](CO)Nc1nc(NCc2ccccc2)c2ncn(C(C)C)c2n1 [SELICICLIB] | > 16 µM

Tested on: CW-2;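 note: growth inhibition of CW-2 cells, read out by a cell viability assay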
Assay: cells
Type: functional, cell-based, Homo sapiens
Conditions: Homo sapiens, CW-2
Description: SANGER: Inhibition of human CW-2 cell growth in a cell viability assay.

Row | Compound | IC50
43 | CC[C@H](CO)Nc1nc(NCc2ccccc2)c2ncn(C(C)C)c2n1 [SELICICLIB] | > 16 µM

Tested on: ES8;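 note: growth inhibition of human ES8 cells, read out with a cell viability assay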
Assay: cells
Type: functional, cell-based, Homo sapiens
Conditions: Homo sapiens, ES8
Description: SANGER: Inhibition of human ES8 cell growth in a cell viability assay.

Row | Compound | IC50
44 | CC[C@H](CO)Nc1nc(NCc2ccccc2)c2ncn(C(C)C)c2n1 [SELICICLIB] | > 16 µM

Tested on: SHP77;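 note: growth inhibition of human SHP-77 cells measured by a cell viability assay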
Assay: cells
Type: functional, cell-based, Homo sapiens, SHP-77
Conditions: Homo sapiens, SHP77
Description: SANGER: Inhibition of human SHP-77 cell growth in a cell viability assay.

Row | Compound | IC50
45 | CC[C@H](CO)Nc1nc(NCc2ccccc2)c2ncn(C(C)C)c2n1 [SELICICLIB] | > 16 µM

Tested on: MOLT-4;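 note: growth inhibition of MOLT-4 cells, determined with a cell viability readout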
Assay: cells
Type: functional, cell-based, Homo sapiens
Conditions: Homo sapiens, MOLT-4
Description: SANGER: Inhibition of human MOLT-4 cell growth in a cell viability assay.

Row | Compound | IC50
46 | CC[C@H](CO)Nc1nc(NCc2ccccc2)c2ncn(C(C)C)c2n1 [SELICICLIB] | > 16 µM

Tested on: OS-RC-2;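 note: growth inhibition of human OS-RC-2 cells, measured by a cell viability assay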
Assay: cells
Type: functional, cell-based, Homo sapiens
Conditions: Homo sapiens, OS-RC-2
Description: SANGER: Inhibition of human OS-RC-2 cell growth in a cell viability assay.

Row | Compound | IC50
47 | CC[C@H](CO)Nc1nc(NCc2ccccc2)c2ncn(C(C)C)c2n1 [SELICICLIB] | 15.8 µM
